Data reported in article PMC5297703, “R-Flurbiprofen Traps Prostaglandins within Cells by Inhibition of Multidrug Resistance-Associated Protein-4” (International Journal of Molecular Sciences, 2016).

Molecular target: T1, cPLA2α (Homo sapiens, UniProt P47712)
T1 construct: gene PLA2G4A; recombinant, isolated from Sf9 insect cells
T1 sequence (P47712 1-749): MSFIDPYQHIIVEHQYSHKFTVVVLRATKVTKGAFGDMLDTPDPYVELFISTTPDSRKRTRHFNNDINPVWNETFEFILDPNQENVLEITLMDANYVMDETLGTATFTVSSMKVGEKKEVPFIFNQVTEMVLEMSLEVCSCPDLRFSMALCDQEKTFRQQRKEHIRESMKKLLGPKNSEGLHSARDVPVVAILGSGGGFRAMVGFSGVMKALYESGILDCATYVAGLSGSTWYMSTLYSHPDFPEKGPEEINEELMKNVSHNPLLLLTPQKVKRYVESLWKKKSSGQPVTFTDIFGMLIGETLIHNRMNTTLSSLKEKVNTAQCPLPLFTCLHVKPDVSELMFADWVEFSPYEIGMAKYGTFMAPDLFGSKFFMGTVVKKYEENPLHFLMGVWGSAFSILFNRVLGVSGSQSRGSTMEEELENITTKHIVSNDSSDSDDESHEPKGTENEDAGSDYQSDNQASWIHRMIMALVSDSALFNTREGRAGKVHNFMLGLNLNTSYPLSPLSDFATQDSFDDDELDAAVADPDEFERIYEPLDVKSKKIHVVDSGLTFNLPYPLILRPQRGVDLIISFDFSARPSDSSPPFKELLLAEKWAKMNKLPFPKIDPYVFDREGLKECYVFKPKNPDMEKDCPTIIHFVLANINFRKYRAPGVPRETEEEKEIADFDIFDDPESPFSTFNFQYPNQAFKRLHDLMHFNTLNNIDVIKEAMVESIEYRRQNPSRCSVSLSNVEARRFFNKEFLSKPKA
Test: cPLA2α activity assay with PAPC/POG vesicles, arachidonic acid by LC-MS/MS
Type: biochemical

Compound `C[C@@H](C(=O)O)c1ccc(-c2ccccc2)c(F)c1` [R-flurbiprofen] has an IC50 of 202 µM.
